From patent US9963703B2, “Compositions and methods for treating pancreatic cancer” (Autotelic LLC, priority 2016, dated 2018)

What was measured:
[1] = test system: HUP-T3 pancreatic cancer cells; assay: Cellular proliferation of HUP-T3 pancreatic cancer cells in vitro; settings: HUP-T3; treatment on day 1 for 5 h; measured after 7 days
Text: (§1) The aim of the study was to determine the effect of AP12009 (trabedersen) treatment in combination with 5-Fluorouracil (5-FU) on TGFβ2 secretion and on cellular proliferation of HUP-T3 pancreatic cancer cells and WiDr colon cancer cells in vitro.

TGFβ2 [2] = assay: TGFβ2 secretion/expression in HUP-T3 pancreatic cancer cells; format: cell-based
Text: as §1

WiDr colon cancer cells = assay: Cellular proliferation of WiDr colon cancer cells in vitro; format: cell-based; settings: treatment on day 1 for 5 h only
Text: as §1

TGFβ2 [3] = assay: TGFβ2 secretion/expression in WiDr colon cancer cells; format: cell-based
Text: as §1

## O=c1[nH]cc(F)c(=O)[nH]1 [5-FU, 5-Fluorouracil, reference compound]
[1]
  5-FU concentrations that dose-dependently reduced cell proliferation: > 10 µM
TGFβ2 [2]
  5-FU concentrations at which TGFβ2 was suppressed: > 75 µM
WiDr colon cancer cells
  5-FU concentrations that concentration-dependently reduced cell proliferation: > 38 µM
TGFβ2 [3]
  5-FU concentrations at which TGFβ2 was suppressed: > 75 µM
